# Data taken from ChEMBL document CHEMBL3885861, “Open TG-GATES”.
# Organism: Rattus norvegicus
# Assay: Open TG-GATES - Regimen: Single
# Type: toxicity, organism-based, Sprague-Dawley
# Set-up: regimen Single, gender Male, age 6 weeks
# Settings: in vivo, po, 0 mg/kg, route gavage, dose level Control; for APTT / Bas / Eos / Fbg / Hb / Ht / Lym / MCH / MCHC / MCV / Mono / Neu / PT / Plat / RBC / Ret / WBC: tissue Blood; for KIDNEY_L / KIDNEY_R / KIDNEY_TOTAL: tissue Kidney; for LIVER: tissue Liver; for A/G / ALP / ALT / AST / BUN / CRE / Ca / Cl / DBIL / GLC / IP / K / LDH / Na / PL / RALB / TBIL / TC / TG / TP / gamma-GTP: tissue Plasma
smiles,measurement,setting,value
Cn1c(=O)c2[nH]cnc2n(C)c1=O.O [THEOPHYLLINE],TERMINAL_BW,3 h,221.7 g
same,APTT,3 h,22.2 s
same,Bas,3 h,0%
same,Eos,3 h,0.8%
same,Fbg,3 h,289.8 mg/dL
same,Hb,3 h,13.1 g/dL
same,Ht,3 h,39.5%
same,Lym,3 h,83.2%
same,MCH,3 h,20.7 pg
same,MCHC,3 h,33.2%
same,MCV,3 h,62.5 fL
same,Mono,3 h,1.8%
same,Neu,3 h,13.6%
same,PT,3 h,15.5 s
same,Plat,3 h,119 x10_4/uL
same,RBC,3 h,632.2 x10_4/ul
same,Ret,3 h,8.4%
same,WBC,3 h,101.2 x10_2/uL
same,KIDNEY_L,3 h,1 g
same,KIDNEY_R,3 h,1 g
same,KIDNEY_TOTAL,3 h,2 g
same,LIVER,3 h,10.3 g
same,A/G,3 h,1.3
same,ALP,3 h,1309 IU/L
same,ALT,3 h,43.6 IU/L
same,AST,3 h,70 IU/L
same,BUN,3 h,13.8 mg/dL
same,CRE,3 h,0.2 mg/dL
same,Ca,3 h,10.5 mg/dL
same,Cl,3 h,105 meq/L
same,DBIL,3 h,0 mg/dL
same,GLC,3 h,190.4 mg/dL
same,IP,3 h,8.8 mg/dL
same,K,3 h,4.2 meq/L
same,LDH,3 h,179 IU/L
same,Na,3 h,142.6 meq/L
same,PL,3 h,135.8 mg/dL
same,RALB,3 h,3 g/dL
same,TBIL,3 h,0.018 mg/dL
same,TC,3 h,77.4 mg/dL
same,TG,3 h,49.2 mg/dL
same,TP,3 h,5.3 g/dL
same,gamma-GTP,3 h,1.2 IU/L
same,TERMINAL_BW,6 h,213.2 g
same,APTT,6 h,21.5 s
same,Bas,6 h,0%
same,Eos,6 h,0.6%
same,Fbg,6 h,300.6 mg/dL
same,Hb,6 h,13.7 g/dL
same,Ht,6 h,40.9%
same,Lym,6 h,82.2%
same,MCH,6 h,20.8 pg
same,MCHC,6 h,33.4%
same,MCV,6 h,62.3 fL
same,Mono,6 h,2.6%
same,Neu,6 h,13.2%
same,PT,6 h,15.6 s
same,Plat,6 h,118.7 x10_4/uL
same,RBC,6 h,657.2 x10_4/ul
same,Ret,6 h,7.4%
same,WBC,6 h,102.6 x10_2/uL
same,KIDNEY_L,6 h,1 g
same,KIDNEY_R,6 h,1 g
same,KIDNEY_TOTAL,6 h,1.9 g
same,LIVER,6 h,9.1 g
same,A/G,6 h,1.2
same,ALP,6 h,1402.8 IU/L
same,ALT,6 h,39.8 IU/L
same,AST,6 h,75.6 IU/L
same,BUN,6 h,10.8 mg/dL
same,CRE,6 h,0.1 mg/dL
same,Ca,6 h,10.4 mg/dL
same,Cl,6 h,105.8 meq/L
same,DBIL,6 h,0 mg/dL
same,GLC,6 h,183.8 mg/dL
same,IP,6 h,9.3 mg/dL
same,K,6 h,4.4 meq/L
same,LDH,6 h,202 IU/L
same,Na,6 h,142.6 meq/L
same,PL,6 h,124.6 mg/dL
same,RALB,6 h,2.9 g/dL
same,TBIL,6 h,0.024 mg/dL
same,TC,6 h,72.8 mg/dL
same,TG,6 h,48.2 mg/dL
same,TP,6 h,5.4 g/dL
same,gamma-GTP,6 h,1 IU/L
same,TERMINAL_BW,9 h,212.6 g
same,APTT,9 h,22.9 s
same,Bas,9 h,0%
same,Eos,9 h,0.8%
same,Fbg,9 h,310.2 mg/dL
same,Hb,9 h,13.3 g/dL
same,Ht,9 h,39.9%
same,Lym,9 h,77.6%
same,MCH,9 h,20.5 pg
same,MCHC,9 h,33.3%
same,MCV,9 h,61.6 fL
same,Mono,9 h,2.4%
same,Neu,9 h,18%
same,PT,9 h,15.8 s
same,Plat,9 h,119 x10_4/uL
same,RBC,9 h,649.6 x10_4/ul
same,Ret,9 h,7.5%
same,WBC,9 h,79.6 x10_2/uL
same,KIDNEY_L,9 h,1 g
same,KIDNEY_R,9 h,1 g
same,KIDNEY_TOTAL,9 h,2 g
same,LIVER,9 h,8.6 g
same,A/G,9 h,1.2
same,ALP,9 h,1444.4 IU/L
same,ALT,9 h,35.2 IU/L
same,AST,9 h,70.4 IU/L
same,BUN,9 h,12.6 mg/dL
same,CRE,9 h,0.2 mg/dL
same,Ca,9 h,10.8 mg/dL
same,Cl,9 h,105.8 meq/L
same,DBIL,9 h,0 mg/dL
same,GLC,9 h,188 mg/dL
same,IP,9 h,9.2 mg/dL
same,K,9 h,4.3 meq/L
same,LDH,9 h,180.6 IU/L
same,Na,9 h,140.8 meq/L
same,PL,9 h,125.6 mg/dL
same,RALB,9 h,3.1 g/dL
same,TBIL,9 h,0.022 mg/dL
same,TC,9 h,73.2 mg/dL
same,TG,9 h,52.8 mg/dL
same,TP,9 h,5.5 g/dL
same,gamma-GTP,9 h,1 IU/L
same,TERMINAL_BW,24 h,228.3 g
same,APTT,24 h,21.9 s
same,Bas,24 h,0%
same,Eos,24 h,1%
same,Fbg,24 h,291.2 mg/dL
same,Hb,24 h,13.6 g/dL
same,Ht,24 h,40.4%
same,Lym,24 h,82.2%
same,MCH,24 h,20.8 pg
same,MCHC,24 h,33.7%
same,MCV,24 h,61.5 fL
same,Mono,24 h,2.6%
same,Neu,24 h,13%
same,PT,24 h,15.9 s
same,Plat,24 h,115.8 x10_4/uL
same,RBC,24 h,657 x10_4/ul
same,Ret,24 h,6.9%
same,WBC,24 h,97 x10_2/uL
same,KIDNEY_L,24 h,1 g
same,KIDNEY_R,24 h,1 g
same,KIDNEY_TOTAL,24 h,2 g
same,LIVER,24 h,10.4 g
same,A/G,24 h,1.2
same,ALP,24 h,1398.8 IU/L
same,ALT,24 h,40.8 IU/L
same,AST,24 h,69.4 IU/L
same,BUN,24 h,16.6 mg/dL
same,CRE,24 h,0.2 mg/dL
same,Ca,24 h,10.9 mg/dL
same,Cl,24 h,106.2 meq/L
same,DBIL,24 h,0 mg/dL
same,GLC,24 h,193.4 mg/dL
same,IP,24 h,7.7 mg/dL
same,K,24 h,4.3 meq/L
same,LDH,24 h,221 IU/L
same,Na,24 h,143.4 meq/L
same,PL,24 h,151.6 mg/dL
same,RALB,24 h,3 g/dL
same,TBIL,24 h,0.008 mg/dL
same,TC,24 h,80.4 mg/dL
same,TG,24 h,100.2 mg/dL
same,TP,24 h,5.5 g/dL
same,gamma-GTP,24 h,1.2 IU/L
